Measured values: publication PMC9067983, “Identification of highly selective type II kinase inhibitors with chiral peptidomimetic tails” (Journal of Enzyme Inhibition and Medicinal Chemistry, 2022)
Where a SMILES comes first, the peptide text is derived from it. [ ]: non-standard residue; d: D form. The star is where a group is joined. X1 = Cc1ccc(Nc2ncc3c(n2)N(C)C(=O)N(c2cc(C(=O)*)ccc2C)C3)cn1; Aib = CC(C)(N)C(=O)O

How the values were obtained:
Experiment in all cases: kinase selectivity profiling
Assay type in all cases: biochemical
Settings in all cases: 10µM ATP, read-out: % inhibition (relative to DMSO)
DAPK1 = target: T1, DAPK1 (Homo sapiens, UniProt P53355)
T1 construct: purchased Reaction Biology Corp
Procedure: (§1) Full panel kinase profiling and kinase IC50 measurement were performed by using Reaction Biology Corp. (San Diego, USA).

PKCeta = target: T2, PKCeta (Homo sapiens, UniProt P24723)
T2 construct: purchased Reaction Biology Corp
Procedure: as §1

DAPK2 = target: T3, DAPK2 (Homo sapiens, UniProt Q9UIK4)
T3 construct: purchased Reaction Biology Corp
Procedure: as §1

PKG1b = target: T4, PKG1b (Homo sapiens, UniProt Q13976)
T4 construct: purchased Reaction Biology Corp
Procedure: as §1

AKT3 = target: T5, AKT3 (Homo sapiens, UniProt Q9Y243)
T5 construct: purchased Reaction Biology Corp
Procedure: as §1

DYRK4 = target: T6, DYRK4 (Homo sapiens, UniProt Q9NR20)
T6 construct: purchased Reaction Biology Corp
Procedure: as §1

ARK5/NUAK1 = target: T7, ARK5/NUAK1 (Homo sapiens, UniProt O60285)
T7 construct: purchased Reaction Biology Corp
Procedure: as §1

GSK3a = target: T8, GSK3a (Homo sapiens, UniProt P49840)
T8 construct: purchased Reaction Biology Corp
Procedure: as §1

LYN B = target: T9, LYN B (Homo sapiens, UniProt P07948)
T9 construct: purchased Reaction Biology Corp
Procedure: as §1

TEC = target: T10, TEC (Homo sapiens, UniProt P42680)
T10 construct: purchased Reaction Biology Corp
Procedure: as §1

WEE1 = target: T11, WEE1 (Homo sapiens, UniProt P30291)
T11 construct: purchased Reaction Biology Corp
Procedure: as §1

PLK4/SAK = target: T12, PLK4/SAK (Homo sapiens, UniProt O00444)
T12 construct: purchased Reaction Biology Corp
Procedure: as §1

GRK1 = target: T13, GRK1 (Homo sapiens, UniProt Q15835)
T13 construct: purchased Reaction Biology Corp
Procedure: as §1

SIK3 = target: T14, SIK3 (Homo sapiens, UniProt Q9Y2K2)
T14 construct: purchased Reaction Biology Corp
Procedure: as §1

PASK = target: T15, PASK (Homo sapiens, UniProt Q96RG2)
T15 construct: purchased Reaction Biology Corp
Procedure: as §1

CSK = target: T16, CSK (Homo sapiens, UniProt P41240)
T16 construct: purchased Reaction Biology Corp
Procedure: as §1

CAMK1d = target: T17, CAMK1d (Homo sapiens, UniProt Q8IU85)
T17 construct: purchased Reaction Biology Corp
Procedure: as §1

CDK6/cyclin D1 = target: T18, CDK6/cyclin D1 (Homo sapiens, UniProt Q00534)
T18 construct: purchased Reaction Biology Corp
Procedure: as §1

FLT4/VEGFR3 = target: T19, FLT4/VEGFR3 (Homo sapiens, UniProt P35916)
T19 construct: purchased Reaction Biology Corp
Procedure: as §1

CDK9/cyclin K = target: T20, CDK9/cyclin K (Homo sapiens, UniProt P50750)
T20 construct: purchased Reaction Biology Corp
Procedure: as §1

FMS = target: T21, FMS (Homo sapiens, UniProt P07333)
T21 construct: purchased Reaction Biology Corp
Procedure: as §1

PHKg2 = target: T22, PHKg2 (Homo sapiens, UniProt P15735)
T22 construct: purchased Reaction Biology Corp
Procedure: as §1

PLK3 = target: T23, PLK3 (Homo sapiens, UniProt Q9H4B4)
T23 construct: purchased Reaction Biology Corp
Procedure: as §1

KHS/MAP4K5 = target: T24, KHS/MAP4K5 (Homo sapiens, UniProt Q9Y4K4)
T24 construct: purchased Reaction Biology Corp
Procedure: as §1

CDK4/cyclin D1 = target: T25, CDK4/cyclin D1 (Homo sapiens, UniProt P11802)
T25 construct: purchased Reaction Biology Corp
Procedure: as §1

CDK5/p35 = target: T26, CDK5/p35 (Homo sapiens, UniProt Q00535)
T26 construct: purchased Reaction Biology Corp
Procedure: as §1

HIPK4 = target: T27, HIPK4 (Homo sapiens, UniProt Q8NE63)
T27 construct: purchased Reaction Biology Corp
Procedure: as §1

JAK1 = target: T28, JAK1 (Homo sapiens, UniProt P23458)
T28 construct: purchased Reaction Biology Corp
Procedure: as §1

TESK2 = target: T29, TESK2 (Homo sapiens, UniProt Q96S53)
T29 construct: purchased Reaction Biology Corp
Procedure: as §1

DMPK2 = target: T30, DMPK2 (Homo sapiens, UniProt Q6DT37)
T30 construct: purchased Reaction Biology Corp
Procedure: as §1

MLK1/MAP3K9 = target: T31, MLK1/MAP3K9 (Homo sapiens, UniProt P80192)
T31 construct: purchased Reaction Biology Corp
Procedure: as §1

MASTL = target: T32, MASTL (Homo sapiens, UniProt Q96GX5)
T32 construct: purchased Reaction Biology Corp
Procedure: as §1

NEK1 = target: T33, NEK1 (Homo sapiens, UniProt Q96PY6)
T33 construct: purchased Reaction Biology Corp
Procedure: as §1

IRAK1 = target: T34, IRAK1 (Homo sapiens, UniProt P51617)
T34 construct: purchased Reaction Biology Corp
Procedure: as §1

HIPK1 = target: T35, HIPK1 (Homo sapiens, UniProt Q86Z02)
T35 construct: purchased Reaction Biology Corp
Procedure: as §1

MELK = target: T36, MELK (Homo sapiens, UniProt Q14680)
T36 construct: purchased Reaction Biology Corp
Procedure: as §1

RAF1 = target: T37, RAF1 (Homo sapiens, UniProt P04049)
T37 construct: purchased Reaction Biology Corp
Procedure: as §1

MARK3 = target: T38, MARK3 (Homo sapiens, UniProt P27448)
T38 construct: purchased Reaction Biology Corp
Procedure: as §1

SSTK/TSSK6 = target: T39, SSTK/TSSK6 (Homo sapiens, UniProt Q9BXA6)
T39 construct: purchased Reaction Biology Corp
Procedure: as §1

TYK2 = target: T40, TYK2 (Homo sapiens, UniProt P29597)
T40 construct: purchased Reaction Biology Corp
Procedure: as §1

MSK1/RPS6KA5 = target: T41, MSK1/RPS6KA5 (Homo sapiens, UniProt O75582)
T41 construct: purchased Reaction Biology Corp
Procedure: as §1

RSK4 = target: T42, RSK4 (Homo sapiens, UniProt Q9UK32)
T42 construct: purchased Reaction Biology Corp
Procedure: as §1

ALK2/ACVR1 = target: T43, ALK2/ACVR1 (Homo sapiens, UniProt Q04771)
T43 construct: purchased Reaction Biology Corp
Procedure: as §1

T38 sequence (P27448 whole entry): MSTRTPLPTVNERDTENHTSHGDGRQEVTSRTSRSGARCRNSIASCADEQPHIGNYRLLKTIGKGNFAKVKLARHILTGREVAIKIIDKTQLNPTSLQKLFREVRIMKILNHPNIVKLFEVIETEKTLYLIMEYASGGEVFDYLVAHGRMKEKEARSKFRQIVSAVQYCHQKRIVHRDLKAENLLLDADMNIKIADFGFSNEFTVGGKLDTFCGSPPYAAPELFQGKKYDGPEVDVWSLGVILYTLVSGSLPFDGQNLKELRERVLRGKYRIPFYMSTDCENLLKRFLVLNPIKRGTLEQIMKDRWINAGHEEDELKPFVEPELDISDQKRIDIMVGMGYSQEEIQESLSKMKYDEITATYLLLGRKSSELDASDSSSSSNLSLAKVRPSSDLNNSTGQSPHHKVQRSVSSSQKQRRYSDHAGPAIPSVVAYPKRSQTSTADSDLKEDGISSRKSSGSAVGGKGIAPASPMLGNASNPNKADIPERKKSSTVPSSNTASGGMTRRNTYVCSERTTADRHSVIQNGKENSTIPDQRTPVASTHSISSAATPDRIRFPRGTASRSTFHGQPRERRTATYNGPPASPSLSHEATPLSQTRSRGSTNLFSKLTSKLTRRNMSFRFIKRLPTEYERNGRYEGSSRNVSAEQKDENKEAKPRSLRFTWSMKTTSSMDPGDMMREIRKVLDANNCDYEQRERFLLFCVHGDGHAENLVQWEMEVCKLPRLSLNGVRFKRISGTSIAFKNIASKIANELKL
T5 sequence (Q9Y243 whole entry): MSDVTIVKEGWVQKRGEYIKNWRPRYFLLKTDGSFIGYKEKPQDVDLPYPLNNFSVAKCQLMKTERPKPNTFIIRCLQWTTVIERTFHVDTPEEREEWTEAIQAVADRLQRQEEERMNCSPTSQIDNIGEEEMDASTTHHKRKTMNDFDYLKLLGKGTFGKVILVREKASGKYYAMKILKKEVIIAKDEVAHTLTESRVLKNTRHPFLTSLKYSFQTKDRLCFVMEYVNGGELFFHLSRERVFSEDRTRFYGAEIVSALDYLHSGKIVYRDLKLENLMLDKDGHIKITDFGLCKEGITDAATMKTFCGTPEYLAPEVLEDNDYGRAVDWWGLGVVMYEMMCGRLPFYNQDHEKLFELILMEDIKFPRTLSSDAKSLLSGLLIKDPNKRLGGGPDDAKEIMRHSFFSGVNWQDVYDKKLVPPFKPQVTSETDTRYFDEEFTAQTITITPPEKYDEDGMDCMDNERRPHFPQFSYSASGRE
T40 sequence (P29597 whole entry): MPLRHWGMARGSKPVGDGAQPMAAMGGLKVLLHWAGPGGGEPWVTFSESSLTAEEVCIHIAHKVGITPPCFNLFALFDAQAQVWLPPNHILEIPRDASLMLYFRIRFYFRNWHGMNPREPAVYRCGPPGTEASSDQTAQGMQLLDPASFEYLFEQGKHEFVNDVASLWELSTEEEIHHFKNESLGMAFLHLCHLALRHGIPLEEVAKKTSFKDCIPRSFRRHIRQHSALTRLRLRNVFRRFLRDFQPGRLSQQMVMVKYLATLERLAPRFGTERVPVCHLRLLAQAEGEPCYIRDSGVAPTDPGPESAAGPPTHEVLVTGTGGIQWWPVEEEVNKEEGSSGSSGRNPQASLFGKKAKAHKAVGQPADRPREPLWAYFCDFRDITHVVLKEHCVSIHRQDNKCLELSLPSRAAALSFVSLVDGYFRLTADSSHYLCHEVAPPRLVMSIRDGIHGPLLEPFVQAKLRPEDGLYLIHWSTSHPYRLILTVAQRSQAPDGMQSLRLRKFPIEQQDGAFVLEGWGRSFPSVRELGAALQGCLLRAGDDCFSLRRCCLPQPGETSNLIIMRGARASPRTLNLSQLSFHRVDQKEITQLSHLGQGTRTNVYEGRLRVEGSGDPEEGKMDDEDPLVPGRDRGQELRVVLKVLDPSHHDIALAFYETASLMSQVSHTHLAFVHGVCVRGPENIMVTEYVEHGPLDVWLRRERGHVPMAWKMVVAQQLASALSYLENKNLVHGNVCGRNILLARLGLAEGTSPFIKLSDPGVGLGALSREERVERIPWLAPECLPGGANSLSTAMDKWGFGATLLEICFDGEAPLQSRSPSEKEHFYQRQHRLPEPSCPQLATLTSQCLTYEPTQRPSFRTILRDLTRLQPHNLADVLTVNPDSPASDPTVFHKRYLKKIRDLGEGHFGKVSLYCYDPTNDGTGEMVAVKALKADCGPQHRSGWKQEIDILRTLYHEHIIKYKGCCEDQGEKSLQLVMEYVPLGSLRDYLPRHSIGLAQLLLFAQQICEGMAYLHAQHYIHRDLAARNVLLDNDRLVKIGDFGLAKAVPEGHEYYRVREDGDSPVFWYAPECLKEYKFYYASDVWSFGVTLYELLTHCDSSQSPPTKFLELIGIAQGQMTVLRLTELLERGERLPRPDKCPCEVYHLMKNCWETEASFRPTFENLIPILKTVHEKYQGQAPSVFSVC
T39 sequence (Q9BXA6 whole entry): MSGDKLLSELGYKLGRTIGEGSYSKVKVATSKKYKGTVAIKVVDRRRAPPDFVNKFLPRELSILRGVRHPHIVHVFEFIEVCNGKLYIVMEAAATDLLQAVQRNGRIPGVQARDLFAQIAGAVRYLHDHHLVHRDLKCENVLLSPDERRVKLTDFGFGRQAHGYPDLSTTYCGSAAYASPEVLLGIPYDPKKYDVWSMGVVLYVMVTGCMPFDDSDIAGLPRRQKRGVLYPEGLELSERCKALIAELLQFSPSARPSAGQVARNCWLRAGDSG
T19 sequence (P35916 25-1363): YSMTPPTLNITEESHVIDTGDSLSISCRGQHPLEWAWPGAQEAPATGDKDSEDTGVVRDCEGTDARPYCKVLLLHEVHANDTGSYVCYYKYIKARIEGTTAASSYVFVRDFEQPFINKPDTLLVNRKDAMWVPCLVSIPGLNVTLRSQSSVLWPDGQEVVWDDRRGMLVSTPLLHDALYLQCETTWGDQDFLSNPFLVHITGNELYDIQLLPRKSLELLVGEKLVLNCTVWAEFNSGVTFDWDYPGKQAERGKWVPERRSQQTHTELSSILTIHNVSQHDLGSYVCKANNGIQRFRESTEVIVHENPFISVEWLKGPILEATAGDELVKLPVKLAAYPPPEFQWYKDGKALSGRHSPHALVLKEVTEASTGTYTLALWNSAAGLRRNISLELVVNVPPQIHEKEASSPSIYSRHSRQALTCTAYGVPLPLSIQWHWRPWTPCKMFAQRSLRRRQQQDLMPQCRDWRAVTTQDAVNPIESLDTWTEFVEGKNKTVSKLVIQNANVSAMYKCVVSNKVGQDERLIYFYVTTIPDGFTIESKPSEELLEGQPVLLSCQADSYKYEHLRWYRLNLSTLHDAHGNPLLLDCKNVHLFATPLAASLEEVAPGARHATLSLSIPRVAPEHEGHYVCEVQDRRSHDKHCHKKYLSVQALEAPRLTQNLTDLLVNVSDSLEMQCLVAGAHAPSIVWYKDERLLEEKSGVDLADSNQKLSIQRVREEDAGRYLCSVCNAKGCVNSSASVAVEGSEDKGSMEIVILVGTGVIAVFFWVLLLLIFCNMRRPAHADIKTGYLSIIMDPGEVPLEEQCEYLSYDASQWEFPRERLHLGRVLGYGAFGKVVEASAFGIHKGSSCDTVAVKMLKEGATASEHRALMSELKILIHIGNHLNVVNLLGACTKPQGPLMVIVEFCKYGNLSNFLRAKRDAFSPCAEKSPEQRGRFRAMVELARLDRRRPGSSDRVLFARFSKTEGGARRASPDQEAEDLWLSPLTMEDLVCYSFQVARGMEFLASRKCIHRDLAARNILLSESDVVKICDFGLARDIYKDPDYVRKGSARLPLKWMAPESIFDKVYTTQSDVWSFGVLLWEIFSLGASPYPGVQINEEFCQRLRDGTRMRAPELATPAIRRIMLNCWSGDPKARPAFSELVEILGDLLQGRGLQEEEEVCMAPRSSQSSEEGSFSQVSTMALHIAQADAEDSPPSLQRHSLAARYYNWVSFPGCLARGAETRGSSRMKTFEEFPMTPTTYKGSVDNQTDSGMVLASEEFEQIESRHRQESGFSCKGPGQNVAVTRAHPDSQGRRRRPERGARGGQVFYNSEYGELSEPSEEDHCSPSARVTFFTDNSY
T26 sequence (Q00535 whole entry): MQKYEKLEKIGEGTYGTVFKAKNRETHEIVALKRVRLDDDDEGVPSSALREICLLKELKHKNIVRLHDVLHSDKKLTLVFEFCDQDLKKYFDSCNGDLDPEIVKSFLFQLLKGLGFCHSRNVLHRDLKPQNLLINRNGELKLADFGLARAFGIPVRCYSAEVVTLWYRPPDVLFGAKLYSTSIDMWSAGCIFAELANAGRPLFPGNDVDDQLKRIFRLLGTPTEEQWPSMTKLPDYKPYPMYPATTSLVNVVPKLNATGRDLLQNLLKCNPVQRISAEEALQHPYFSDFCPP
T26 sequence (Q15078 whole entry partner): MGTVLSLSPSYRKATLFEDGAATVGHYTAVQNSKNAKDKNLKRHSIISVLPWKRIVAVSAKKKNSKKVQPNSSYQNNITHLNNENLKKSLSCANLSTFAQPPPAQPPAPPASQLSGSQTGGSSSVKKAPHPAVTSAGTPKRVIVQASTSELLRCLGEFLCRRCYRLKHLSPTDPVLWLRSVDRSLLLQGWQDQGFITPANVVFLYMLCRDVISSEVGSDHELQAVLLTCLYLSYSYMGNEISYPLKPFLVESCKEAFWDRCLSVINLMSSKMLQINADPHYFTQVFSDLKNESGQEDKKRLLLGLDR
T22 sequence (P15735 whole entry): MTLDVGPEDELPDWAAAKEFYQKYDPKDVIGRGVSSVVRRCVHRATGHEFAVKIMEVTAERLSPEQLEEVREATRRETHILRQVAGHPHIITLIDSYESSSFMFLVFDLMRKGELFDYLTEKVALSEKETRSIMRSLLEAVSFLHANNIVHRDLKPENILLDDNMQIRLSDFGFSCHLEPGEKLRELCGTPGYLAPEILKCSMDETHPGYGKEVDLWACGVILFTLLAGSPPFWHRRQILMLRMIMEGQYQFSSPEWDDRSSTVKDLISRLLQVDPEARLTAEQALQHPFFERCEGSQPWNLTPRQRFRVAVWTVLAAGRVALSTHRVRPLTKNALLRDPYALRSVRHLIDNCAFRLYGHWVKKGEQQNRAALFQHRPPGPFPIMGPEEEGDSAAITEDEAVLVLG

Q: Which results are given for `Cc1ccc(Nc2ncc3c(n2)N(C)C(=O)N(c2cc(C(=O)N[C@H](C(=O)N4CCC[C@H]4C(=O)NC(C)(C)C(=O)N[C@@H](CC(C)C)C(=O)N(C)C)C(C)C)ccc2C)C3)cn1` [7a, (S)-N-(1-(((S)-1-(dimethylamino)-4-methyl-1-oxopentan-2-yl)amino)-2-methyl-1-oxopropan-2-yl)-1-((4-methyl-3-(1-methyl-7-((6-methylpyridin-3-yl)amino)-2-oxo-1,4-dihydropyrimido[4,5-d]pyrimidin-3(2H)-yl)benzoyl)-L-valyl)pyrrolidine-2-carboxamide] (X1-VP[Aib]L-NMe2)?
A: inhibition at 1 µM (DAPK1): 0%; inhibition at 1 µM (PKCeta): 27%; inhibition at 1 µM (DAPK2): 1%; inhibition at 1 µM (PKG1b): 0%; inhibition at 1 µM (AKT3): 10%; inhibition at 1 µM (DYRK4): 3%; inhibition at 1 µM (ARK5/NUAK1): 9%; inhibition at 1 µM (GSK3a): 10%; inhibition at 1 µM (LYN B): 34%; inhibition at 1 µM (TEC): 2%; inhibition at 1 µM (WEE1): 0%; inhibition at 1 µM (PLK4/SAK): 5%; inhibition at 1 µM (GRK1): 0%; inhibition at 1 µM (SIK3): 12%; inhibition at 1 µM (PASK): 0%; inhibition at 1 µM (CSK): 44%; inhibition at 1 µM (CAMK1d): 8%; inhibition at 1 µM (CDK6/cyclin D1): 0%; inhibition at 1 µM (FLT4/VEGFR3): 20%; inhibition at 1 µM (CDK9/cyclin K): 0%; inhibition at 1 µM (FMS): 60%; inhibition at 1 µM (PHKg2): 0%; inhibition at 1 µM (PLK3): 3%; inhibition at 1 µM (KHS/MAP4K5): 23%; inhibition at 1 µM (CDK4/cyclin D1): 0%; inhibition at 1 µM (CDK5/p35): 6%; inhibition at 1 µM (HIPK4): 1%; inhibition at 1 µM (JAK1): 9%; inhibition at 1 µM (TESK2): 4%; inhibition at 1 µM (DMPK2): 0%; inhibition at 1 µM (MLK1/MAP3K9): 33%; inhibition at 1 µM (MASTL): 7%; inhibition at 1 µM (NEK1): 0%; inhibition at 1 µM (IRAK1): 14%; inhibition at 1 µM (HIPK1): 0%; inhibition at 1 µM (MELK): 4%; inhibition at 1 µM (RAF1): 69%; inhibition at 1 µM (MARK3): 4%; inhibition at 1 µM (SSTK/TSSK6): 0%; inhibition at 1 µM (TYK2): 1%; inhibition at 1 µM (MSK1/RPS6KA5): 0%; inhibition at 1 µM (RSK4): 0%; inhibition at 1 µM (ALK2/ACVR1): 2%
